From patent US20140276355A1, “Co-administration of Light and a Therapeutic Agent to Stimulate Dysfunctional Mitochondria Affected By a Neurological Disorder” (MEDOS INTERNATIONAL SARL, priority 2013, published 2014)

Columns and labels:
[1] = system: Drosophila model for Parkinson disease; assay: Flight assay in Drosophila model for Parkinson disease; format: in vivo
Description: Flight assays were conducted using male flies in batches of 5 flies each. Flies were placed in an empty vial (5 cm×10 cm), gently tapped and scored visually for their ability to fly. […] The combination of both treatments (e.g., Vitamin K2 and light) provided more than 50% restoration of the locomotor impairment.

Heixudian mutants = settings: Drosophila Heixudian mutants; Vos et al., Science 2012; cited from earlier work

In the case of `CC(C)=CCC/C(C)=C/CC/C(C)=C/CC/C(C)=C/CC1=C(C)C(=O)c2ccccc2C1=O` [Vitamin K2], the “restoration of the locomotor impairment (flight capacity)” value ([1]; combination of Vitamin K2 and light (808 nm continuous laser diode, 100 s, 25 mW/cm2)) is listed as “more than 50%”, the “restored flight capability (animals able to fly)” value ([1]; systemic administration of Vitamin K2 alone, male flies, non-treated controls less than 15%) is listed as “about 30%” and the severe mitochondria defects (Heixudian mutants) is listed as “rescued”.
